ChEMBL document CHEMBL5465560, “Selectivity Literature for EUbOPEN Chemogenomic Library” (2024)

Experiments:
[1] = molecular target: MAP kinase-interacting serine/threonine-protein kinase 1 (Homo sapiens) (UniProt Q9BUB5); experiment: Selectivity interaction (ProQinase) EUB0000171b MKNK1
[2] = molecular target: Serine/threonine-protein kinase MARK2 (Homo sapiens) (UniProt Q7KZI7); experiment: Selectivity interaction (ProQinase) EUB0000171b MARK2
[3] = molecular target: G protein-coupled receptor kinase 4 (Homo sapiens) (UniProt P32298); experiment: Selectivity interaction (Kinase panel (Z-LYTE Assay)) EUB0001632a GRK4; details: at 10 µM
G protein-coupled receptor kinase 4 (Homo sapiens), sequence (P32298 whole entry, looked up): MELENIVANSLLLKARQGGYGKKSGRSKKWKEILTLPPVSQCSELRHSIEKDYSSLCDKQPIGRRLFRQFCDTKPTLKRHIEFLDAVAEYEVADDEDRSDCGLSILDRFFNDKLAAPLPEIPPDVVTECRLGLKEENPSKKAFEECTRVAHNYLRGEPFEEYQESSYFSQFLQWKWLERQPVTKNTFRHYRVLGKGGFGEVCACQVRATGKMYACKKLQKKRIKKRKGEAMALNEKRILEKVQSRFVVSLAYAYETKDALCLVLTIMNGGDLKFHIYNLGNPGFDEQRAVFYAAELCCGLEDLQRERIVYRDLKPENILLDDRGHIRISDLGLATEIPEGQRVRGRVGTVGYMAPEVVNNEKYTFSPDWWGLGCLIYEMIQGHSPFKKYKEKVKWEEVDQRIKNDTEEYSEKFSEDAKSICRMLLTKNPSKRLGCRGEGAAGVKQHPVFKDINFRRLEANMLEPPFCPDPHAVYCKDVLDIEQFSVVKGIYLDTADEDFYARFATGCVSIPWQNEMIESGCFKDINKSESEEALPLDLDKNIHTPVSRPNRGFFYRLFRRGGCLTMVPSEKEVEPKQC

[4] = molecular target: Calcium/calmodulin-dependent protein kinase type II subunit delta (Homo sapiens) (UniProt Q13557); experiment: Selectivity interaction (Kinase panel (Z-LYTE Assay)) EUB0001632a CAMK2D; details: at 10 µM
Calcium/calmodulin-dependent protein kinase type II subunit delta (Homo sapiens), sequence (Q13557 whole entry): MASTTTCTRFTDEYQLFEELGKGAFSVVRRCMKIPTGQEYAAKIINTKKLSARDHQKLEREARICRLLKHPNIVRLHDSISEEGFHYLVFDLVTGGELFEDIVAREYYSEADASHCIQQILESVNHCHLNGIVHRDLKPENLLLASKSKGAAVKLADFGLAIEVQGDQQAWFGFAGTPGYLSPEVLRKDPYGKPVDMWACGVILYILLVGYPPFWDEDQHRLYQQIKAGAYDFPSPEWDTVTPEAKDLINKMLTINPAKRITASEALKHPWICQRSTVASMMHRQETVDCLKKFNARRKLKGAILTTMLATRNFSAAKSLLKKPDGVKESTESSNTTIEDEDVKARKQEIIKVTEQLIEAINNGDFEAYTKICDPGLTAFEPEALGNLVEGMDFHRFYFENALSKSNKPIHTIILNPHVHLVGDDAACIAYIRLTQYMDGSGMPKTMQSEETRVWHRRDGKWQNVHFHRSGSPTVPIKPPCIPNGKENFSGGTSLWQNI

[5] = molecular target: T1, Dual specificity mitogen-activated protein kinase kinase 6 (Homo sapiens) (UniProt P52564); experiment: Selectivity interaction (ActivX KiNativ screen (kinase selectivity in THP-1 cell lysates)) EUB0000639a MAP2K6; assay type: subcellular; details: lysate, at 1 µM
T1 sequence (whole entry): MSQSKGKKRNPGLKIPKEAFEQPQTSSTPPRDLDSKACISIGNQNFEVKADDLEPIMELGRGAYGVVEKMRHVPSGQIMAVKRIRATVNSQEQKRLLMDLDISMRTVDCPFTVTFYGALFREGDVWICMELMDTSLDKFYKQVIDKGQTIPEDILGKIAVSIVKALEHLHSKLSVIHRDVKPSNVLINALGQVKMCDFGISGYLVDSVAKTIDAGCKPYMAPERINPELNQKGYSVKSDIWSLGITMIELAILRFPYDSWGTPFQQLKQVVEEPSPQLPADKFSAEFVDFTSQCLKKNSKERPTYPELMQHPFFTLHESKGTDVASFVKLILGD

[6] = molecular target: Tyrosine-protein kinase Lyn (Homo sapiens, UniProt P07948); experiment: Selectivity interaction (SelectScreen profiling (Invitrogen)) EUB0000607a LYN; details: at 2 µM
Tyrosine-protein kinase Lyn, sequence (P07948 2-512 limits assumed): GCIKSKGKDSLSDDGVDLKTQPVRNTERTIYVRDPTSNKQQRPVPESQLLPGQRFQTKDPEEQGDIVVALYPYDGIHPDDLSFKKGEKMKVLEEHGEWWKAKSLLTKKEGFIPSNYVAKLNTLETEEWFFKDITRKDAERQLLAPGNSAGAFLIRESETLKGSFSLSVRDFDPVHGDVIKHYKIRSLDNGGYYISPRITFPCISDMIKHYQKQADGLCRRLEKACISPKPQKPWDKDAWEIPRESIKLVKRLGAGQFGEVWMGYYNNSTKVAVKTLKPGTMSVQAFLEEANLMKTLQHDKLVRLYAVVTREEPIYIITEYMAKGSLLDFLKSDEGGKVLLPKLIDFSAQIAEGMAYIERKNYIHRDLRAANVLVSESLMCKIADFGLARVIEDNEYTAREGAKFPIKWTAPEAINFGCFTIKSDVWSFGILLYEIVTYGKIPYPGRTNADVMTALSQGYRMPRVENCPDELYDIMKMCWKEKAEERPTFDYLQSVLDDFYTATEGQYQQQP

[7] = molecular target: Serine/threonine-protein kinase SBK1 (Homo sapiens) (UniProt Q52WX2); experiment: Selectivity interaction (KinomeScan (DiscoverX)) EUB0001049a SBK1; details: at 1 µM
Serine/threonine-protein kinase SBK1 (Homo sapiens), sequence (Q52WX2 whole entry): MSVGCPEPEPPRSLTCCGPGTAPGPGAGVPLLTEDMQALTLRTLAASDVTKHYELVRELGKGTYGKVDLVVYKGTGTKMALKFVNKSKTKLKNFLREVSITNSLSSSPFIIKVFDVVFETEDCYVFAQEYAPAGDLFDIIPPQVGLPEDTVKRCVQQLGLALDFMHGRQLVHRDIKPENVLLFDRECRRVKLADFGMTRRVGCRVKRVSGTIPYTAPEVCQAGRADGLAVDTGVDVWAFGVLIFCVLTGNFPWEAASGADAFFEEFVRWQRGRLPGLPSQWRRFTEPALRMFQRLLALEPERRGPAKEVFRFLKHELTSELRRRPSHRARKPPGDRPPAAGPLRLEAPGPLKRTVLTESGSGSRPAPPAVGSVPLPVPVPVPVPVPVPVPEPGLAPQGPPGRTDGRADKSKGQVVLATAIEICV

[8] = Selectivity interaction (KinomeScan (DiscoverX)) EUB0001049a CDPK1; details: at 1 µM
[9] = molecular target: T2, Serine/threonine-protein kinase D2 (Homo sapiens) (UniProt Q9BZL6); experiment: Selectivity interaction (KinomeScan (DiscoverX)) EUB0000695a PRKD2; details: at 100 nM
T2 sequence (whole entry): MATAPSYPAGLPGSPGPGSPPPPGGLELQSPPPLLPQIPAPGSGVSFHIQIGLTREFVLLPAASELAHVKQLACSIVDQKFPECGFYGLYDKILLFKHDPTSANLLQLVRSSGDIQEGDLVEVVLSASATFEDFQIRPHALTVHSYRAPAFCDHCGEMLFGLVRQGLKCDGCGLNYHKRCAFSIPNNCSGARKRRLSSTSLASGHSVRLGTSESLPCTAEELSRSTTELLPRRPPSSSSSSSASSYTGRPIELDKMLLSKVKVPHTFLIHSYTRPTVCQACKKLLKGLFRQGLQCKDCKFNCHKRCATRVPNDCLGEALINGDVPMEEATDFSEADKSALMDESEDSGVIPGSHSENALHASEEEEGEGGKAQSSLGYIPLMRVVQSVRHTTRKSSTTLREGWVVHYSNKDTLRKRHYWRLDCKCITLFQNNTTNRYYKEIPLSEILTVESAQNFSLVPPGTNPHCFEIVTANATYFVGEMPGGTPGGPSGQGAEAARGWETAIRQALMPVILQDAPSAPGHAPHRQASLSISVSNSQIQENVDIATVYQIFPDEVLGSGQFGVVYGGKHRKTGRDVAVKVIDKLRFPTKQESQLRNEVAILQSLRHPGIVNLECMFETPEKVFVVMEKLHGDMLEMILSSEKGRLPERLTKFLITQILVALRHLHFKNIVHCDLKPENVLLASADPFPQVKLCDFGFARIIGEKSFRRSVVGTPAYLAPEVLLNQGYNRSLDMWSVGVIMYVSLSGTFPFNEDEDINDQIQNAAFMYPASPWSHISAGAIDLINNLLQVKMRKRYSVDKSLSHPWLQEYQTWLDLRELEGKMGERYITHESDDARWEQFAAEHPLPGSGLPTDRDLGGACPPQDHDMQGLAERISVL

[10] = molecular target: T3, Non-receptor tyrosine-protein kinase TNK1 (Homo sapiens) (UniProt Q13470); experiment: Selectivity interaction (Kinase panel (Carna Biosciences)) EUB0001542aTs TNK1; details: at 1 µM
T3 sequence (whole entry): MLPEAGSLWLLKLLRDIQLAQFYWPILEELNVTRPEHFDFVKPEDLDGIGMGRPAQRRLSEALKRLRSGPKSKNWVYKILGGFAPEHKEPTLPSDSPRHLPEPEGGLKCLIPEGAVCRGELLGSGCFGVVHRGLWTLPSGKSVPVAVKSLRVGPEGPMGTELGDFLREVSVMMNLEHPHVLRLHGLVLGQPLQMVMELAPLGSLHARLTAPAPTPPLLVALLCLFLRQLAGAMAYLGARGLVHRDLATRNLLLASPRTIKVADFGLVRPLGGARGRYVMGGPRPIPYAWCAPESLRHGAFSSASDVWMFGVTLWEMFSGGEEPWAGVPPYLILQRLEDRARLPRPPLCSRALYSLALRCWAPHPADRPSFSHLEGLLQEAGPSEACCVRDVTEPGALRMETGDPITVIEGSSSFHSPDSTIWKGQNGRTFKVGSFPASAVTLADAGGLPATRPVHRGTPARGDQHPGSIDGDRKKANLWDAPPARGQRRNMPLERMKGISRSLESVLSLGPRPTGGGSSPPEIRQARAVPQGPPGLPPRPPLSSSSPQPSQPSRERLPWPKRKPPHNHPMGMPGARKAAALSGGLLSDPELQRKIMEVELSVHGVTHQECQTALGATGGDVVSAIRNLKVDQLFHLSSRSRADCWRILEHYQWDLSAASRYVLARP

[11] = molecular target: cAMP-dependent protein kinase catalytic subunit beta (Homo sapiens) (UniProt P22694); experiment: Selectivity interaction (KinomeScan (DiscoverX)) EUB0000618a PRKACB; details: at 10 µM
[12] = molecular target: Phosphatidylinositol 4,5-bisphosphate 3-kinase catalytic subunit gamma isoform (Homo sapiens) (UniProt P48736); experiment: Selectivity interaction (KinomeScan (DiscoverX)) EUB0001619a PIK3CG; details: at 1 µM
Phosphatidylinositol 4,5-bisphosphate 3-kinase catalytic subunit gamma isoform (Homo sapiens), sequence (P48736 whole entry, looked up, canonical isoform): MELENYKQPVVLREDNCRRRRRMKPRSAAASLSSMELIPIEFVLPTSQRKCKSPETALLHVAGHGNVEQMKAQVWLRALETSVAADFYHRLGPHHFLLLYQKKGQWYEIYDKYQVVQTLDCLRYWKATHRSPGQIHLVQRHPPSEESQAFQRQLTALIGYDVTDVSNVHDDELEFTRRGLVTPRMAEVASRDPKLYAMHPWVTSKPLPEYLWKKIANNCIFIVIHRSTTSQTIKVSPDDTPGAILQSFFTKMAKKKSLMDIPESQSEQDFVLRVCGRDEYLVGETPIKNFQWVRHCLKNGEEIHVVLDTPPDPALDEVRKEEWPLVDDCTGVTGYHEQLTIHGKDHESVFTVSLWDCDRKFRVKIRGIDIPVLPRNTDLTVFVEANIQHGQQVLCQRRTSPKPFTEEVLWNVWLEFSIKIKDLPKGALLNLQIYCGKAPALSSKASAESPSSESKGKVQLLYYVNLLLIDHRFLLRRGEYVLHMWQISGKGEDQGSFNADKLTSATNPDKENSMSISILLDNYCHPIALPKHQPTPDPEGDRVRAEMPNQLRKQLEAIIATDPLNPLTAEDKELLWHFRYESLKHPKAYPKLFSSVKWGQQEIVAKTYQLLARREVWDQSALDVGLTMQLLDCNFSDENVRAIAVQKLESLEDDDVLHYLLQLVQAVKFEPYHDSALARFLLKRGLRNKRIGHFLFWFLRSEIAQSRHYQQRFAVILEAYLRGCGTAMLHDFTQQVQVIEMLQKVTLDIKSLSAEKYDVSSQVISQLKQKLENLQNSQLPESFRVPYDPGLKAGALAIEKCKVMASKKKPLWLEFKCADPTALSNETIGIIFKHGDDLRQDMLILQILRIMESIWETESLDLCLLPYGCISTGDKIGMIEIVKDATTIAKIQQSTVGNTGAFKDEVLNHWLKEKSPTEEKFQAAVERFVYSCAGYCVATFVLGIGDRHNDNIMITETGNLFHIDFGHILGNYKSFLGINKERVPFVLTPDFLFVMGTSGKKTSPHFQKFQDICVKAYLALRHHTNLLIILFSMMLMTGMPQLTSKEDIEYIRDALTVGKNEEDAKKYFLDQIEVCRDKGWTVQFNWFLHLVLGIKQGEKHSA

Serine/threonine-protein kinase MARK2 (Homo sapiens), sequence (Q7KZI7 whole entry): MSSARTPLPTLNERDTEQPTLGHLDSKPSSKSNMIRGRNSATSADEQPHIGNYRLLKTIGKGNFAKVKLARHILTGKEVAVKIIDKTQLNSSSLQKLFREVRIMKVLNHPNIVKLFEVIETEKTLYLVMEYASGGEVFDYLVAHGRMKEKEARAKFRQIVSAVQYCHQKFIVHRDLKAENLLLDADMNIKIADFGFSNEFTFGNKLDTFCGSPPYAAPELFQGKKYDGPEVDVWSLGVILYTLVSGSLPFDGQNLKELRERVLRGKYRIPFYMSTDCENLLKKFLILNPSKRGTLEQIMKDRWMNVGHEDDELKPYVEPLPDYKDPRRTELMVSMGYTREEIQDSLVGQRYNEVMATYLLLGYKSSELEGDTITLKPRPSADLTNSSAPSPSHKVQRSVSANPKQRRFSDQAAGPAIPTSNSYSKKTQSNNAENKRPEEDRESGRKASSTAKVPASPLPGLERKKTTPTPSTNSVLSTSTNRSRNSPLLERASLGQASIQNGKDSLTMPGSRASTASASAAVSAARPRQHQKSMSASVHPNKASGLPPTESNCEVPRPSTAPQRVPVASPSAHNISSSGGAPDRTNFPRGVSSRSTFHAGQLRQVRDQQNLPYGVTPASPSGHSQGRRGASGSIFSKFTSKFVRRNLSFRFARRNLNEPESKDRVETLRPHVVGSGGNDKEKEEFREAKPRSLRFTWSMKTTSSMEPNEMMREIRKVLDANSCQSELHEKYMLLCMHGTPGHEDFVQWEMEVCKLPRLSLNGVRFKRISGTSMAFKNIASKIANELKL
MAP kinase-interacting serine/threonine-protein kinase 1 (Homo sapiens), sequence (Q9BUB5 whole entry, looked up): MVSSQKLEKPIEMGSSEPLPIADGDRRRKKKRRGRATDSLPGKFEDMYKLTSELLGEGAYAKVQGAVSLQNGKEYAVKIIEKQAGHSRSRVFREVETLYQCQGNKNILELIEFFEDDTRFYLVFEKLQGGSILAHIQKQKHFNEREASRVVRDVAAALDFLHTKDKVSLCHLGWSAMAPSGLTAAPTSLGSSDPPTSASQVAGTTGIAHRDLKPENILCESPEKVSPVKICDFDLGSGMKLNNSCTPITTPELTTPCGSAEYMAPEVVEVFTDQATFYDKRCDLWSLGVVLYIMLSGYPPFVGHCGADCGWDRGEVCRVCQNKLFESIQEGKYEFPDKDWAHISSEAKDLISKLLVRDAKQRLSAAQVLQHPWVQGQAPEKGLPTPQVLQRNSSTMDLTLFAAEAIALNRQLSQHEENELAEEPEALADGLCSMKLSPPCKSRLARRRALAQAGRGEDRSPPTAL

C=CC(=O)Nc1cccc(C(=O)Nc2ccc(Nc3cc(-c4[nH]c(SC)nc4C)ccn3)cc2)c1
% of control ([1]; at 1 µM): 90% | % of control ([1]; at 5 µM): 55% | % of control ([2]; at 1 µM): 93% | % of control ([2]; at 5 µM): 84%

Cn1cc(-n2cnc3c(NCc4nc5cc(Cl)c(Cl)cc5[nH]4)nc(N4CCOCC4)nc32)cn1
% of control [3]: 0.672% | % of control [4]: -1.23%

CC[C@@H]1[C@H](F)C(=O)N[C@@H]1COc1nccc2cc(C(N)=O)c(OC)cc12 [ZIMLOVISERTIB]
% of inhibition [5]: 17%

CNC(=O)Nc1ccc(-c2nc(N3CC4CCC(C3)O4)c3cnn(C4CCC5(CC4)OCCO5)c3n2)cc1
% of inhibition [6]: 7%

COc1cc(Nc2nc(C)cc(-c3cnn4nc(OC)ccc34)n2)cc(C(F)(F)F)c1
% of control [7]: 87% | % of control [8]: 74%

Cc1cc(F)c(C(=O)Nc2cccc(-c3nncn3C(C)C)n2)cc1-n1cnc(C2CC2)c1
% of control [9]: 58%

Cn1cc(Nc2nccc(N3CC4CCC(C3)N4C(=O)[C@@H]3CC3(F)F)n2)cn1
% of inhibition [10]: 94%

O[C@H]1CC[C@H](Nc2ncc3nc(Nc4c(F)cc(F)cc4F)n([C@H]4CCOC4)c3n2)CC1
% of control [11]: 100%

N#Cc1cccc(-c2c[nH]c3ncnc(N4CCOCC4)c23)c1
% of control [12]: 79%
